# Measurements: patent US11730746B2, “17beta-heterocyclyl-digitalis like compounds for the treatment of heart failure” (priority 2018, dated 2023)
# Marks after values point to notes of the source that are not given here.
# Tests used:
# SERCA2a = biological target: T1, SERCA2a (Canis lupus familiaris, UniProt O46674); experiment: SERCA2a ATPase activity in heart-derived SR microsomes from normal dog; type: biochemical; conditions: for Vmax (SERCA2a ATPase activity): mean ± SD
# T1 construct: pre-incubated with 2 μg of microsomes; from tissue; host or cells: dog heart left ventricle, SR microsomes
# T1 sequence (O46674 whole entry): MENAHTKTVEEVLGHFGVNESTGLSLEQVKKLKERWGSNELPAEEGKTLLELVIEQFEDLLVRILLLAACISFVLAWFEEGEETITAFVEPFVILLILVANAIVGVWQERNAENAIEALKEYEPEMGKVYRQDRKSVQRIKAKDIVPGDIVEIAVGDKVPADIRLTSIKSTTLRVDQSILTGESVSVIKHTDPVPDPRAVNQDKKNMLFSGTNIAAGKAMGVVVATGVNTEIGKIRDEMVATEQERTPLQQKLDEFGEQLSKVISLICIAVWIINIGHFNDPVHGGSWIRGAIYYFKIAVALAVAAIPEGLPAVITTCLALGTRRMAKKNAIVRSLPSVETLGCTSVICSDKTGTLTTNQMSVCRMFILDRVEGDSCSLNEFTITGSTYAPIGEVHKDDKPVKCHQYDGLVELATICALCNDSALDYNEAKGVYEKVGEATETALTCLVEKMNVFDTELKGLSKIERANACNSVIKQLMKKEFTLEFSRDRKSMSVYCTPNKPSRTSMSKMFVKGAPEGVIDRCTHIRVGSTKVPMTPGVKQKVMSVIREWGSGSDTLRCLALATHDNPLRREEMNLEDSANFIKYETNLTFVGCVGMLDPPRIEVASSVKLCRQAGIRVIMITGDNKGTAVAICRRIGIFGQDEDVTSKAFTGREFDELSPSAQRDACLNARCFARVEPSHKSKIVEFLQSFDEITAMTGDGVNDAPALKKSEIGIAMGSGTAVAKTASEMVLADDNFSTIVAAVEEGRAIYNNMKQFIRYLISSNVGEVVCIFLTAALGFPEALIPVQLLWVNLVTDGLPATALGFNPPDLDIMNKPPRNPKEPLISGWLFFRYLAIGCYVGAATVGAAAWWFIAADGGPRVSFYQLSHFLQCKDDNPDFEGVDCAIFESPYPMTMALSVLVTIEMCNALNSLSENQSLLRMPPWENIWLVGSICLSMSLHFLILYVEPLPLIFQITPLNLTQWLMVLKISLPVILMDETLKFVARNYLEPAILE
# Protocol: Left ventricle tissues were dissected, homogenized in 4 volumes of 10 mM NaHCO3, pH 7, 1 mM PMSF, 10 μg/ml Aprotinin and Leupeptin and centrifuged at 12,000 g for 15 minutes, as published (Nediani C. et al. J Biol Chem. 1996; 271:19066-73). Supernatants were filtered and centrifuged at 100,000 g for 30 min. Contractile proteins were extracted by suspending the pellets with 0.6 M KCl, 30 mM Histidine, pH 7 and further centrifugation at 100,000 g for 30 min. Final pellets were reconstituted with 0.3 M Sucrose, 30 mM Histidine, pH 7.
# SERCA2a activity was measured “in vitro” as ^32P-ATP hydrolysis at different Ca^2+ concentrations (100-4000 nM) in the absence and presence of the tested compounds, as described (Micheletti R. et al. Am J Card 2007; 99:24A-32A). Increasing concentrations of each compound (from 1 to 100 nM) were pre-incubated with 2 μg of microsomes for 5 min at 4° C. in 80 μl of a solution containing 100 mM KCl, 5 mM MgCl2, 1 μM A23187, 20 mM Tris, pH 7.5. Then, 20 μl of 5 mM Tris-ATP containing 50 nCi of ^32P-ATP (3-10 Ci/mmol, Perkin Elmer) were added. The ATP hydrolysis was continued for 15 min at 37° C. and the reaction was stopped by acidification with 100 μl of 20% v/v ice-cold perchloric acid. ^32P was separated by centrifugation with activated charcoal (Norit A, SERVA) and the radioactivity was measured. SERCA2a-dependent activity was identified as the portion of total hydrolytic activity inhibited by 10 μM cyclopiazonic acid (Seidler N W. et al. J Biol Chem. 1989; 264:17816-23).
# Dose-response curves were fitted by using a sigmoidal curve fitting software and the maximal velocity (Vmax) activity and the Kd Ca^2+ were calculated (Synergy Software KaleidaGraph 3.6).
# STZ diabetic rats = experiment: Haemodynamics in streptozotocin diabetic rats (echocardiography); type: in vivo, rat; conditions: 20 mg/kg os, after treatment, mean ± SD, n = 12
# Protocol: Sprague Dawley male rats (150-175 g) were made diabetic by a single injection into the tail vein of a solution of streptozotocin (STZ, 50 mg/kg, Sigma-Aldrich), freshly prepared in 0.1 M sodium citrate buffer, pH 4.5. Control rats received citrate buffer. Fasting glycaemia was measured after 1 week and rats with values >400 mg/dl were considered diabetic.
# Eight-nine weeks after STZ injection, rats were submitted to transthoracic echocardiographic and Doppler evaluation performed under pentobarbital anesthesia. Two-dimensionally guided M-mode recordings were used to obtain short-axis measurements of left ventricular end-diastolic diameter (LVEDD), left ventricular end-systolic diameter (LVESD), posterior (PW) and septal (SW) diastolic wall thickness according to the American Society of Echocardiography guidelines (Lang R M et al. Eur J Echocardiography 2006; 7:79-108). Fractional shortening was calculated as FS=(LVEDD-LVESD)/LVEDD. Relative wall thickness was calculated as PWTd+IVSTd/LVEDD.
# Mitral inflow was measured by pulsed Doppler at the tips of mitral leaflets from an apical 4-chamber view to obtain early and late filling velocities (E, A) and deceleration time of early filling velocity (DT). The deceleration slope was calculated as E/DT ratio. The mitral deceleration index was calculated as DT/E ratio.
# Tissue Doppler Imaging (TDI) was evaluated from the apical 4-chamber view to record septal mitral annular movements, i.e., peak myocardial systolic (s′) and early and late diastolic velocity (e′ and a′).
# Compound CVie 101 was orally administered to STZ injected rats at the dose of 20 mg/kg and echocardiographic parameters were measured after 1 h.
# [1] = biological target: T2, Peptidase, Angiotensin Converting Enzyme (Oryctolagus cuniculus, UniProt P12822); experiment: Eurofins panel 107300; type: biochemical, rabbit
# T2 construct: Eurofins 107300
# T2 sequence (P12822 34-1310): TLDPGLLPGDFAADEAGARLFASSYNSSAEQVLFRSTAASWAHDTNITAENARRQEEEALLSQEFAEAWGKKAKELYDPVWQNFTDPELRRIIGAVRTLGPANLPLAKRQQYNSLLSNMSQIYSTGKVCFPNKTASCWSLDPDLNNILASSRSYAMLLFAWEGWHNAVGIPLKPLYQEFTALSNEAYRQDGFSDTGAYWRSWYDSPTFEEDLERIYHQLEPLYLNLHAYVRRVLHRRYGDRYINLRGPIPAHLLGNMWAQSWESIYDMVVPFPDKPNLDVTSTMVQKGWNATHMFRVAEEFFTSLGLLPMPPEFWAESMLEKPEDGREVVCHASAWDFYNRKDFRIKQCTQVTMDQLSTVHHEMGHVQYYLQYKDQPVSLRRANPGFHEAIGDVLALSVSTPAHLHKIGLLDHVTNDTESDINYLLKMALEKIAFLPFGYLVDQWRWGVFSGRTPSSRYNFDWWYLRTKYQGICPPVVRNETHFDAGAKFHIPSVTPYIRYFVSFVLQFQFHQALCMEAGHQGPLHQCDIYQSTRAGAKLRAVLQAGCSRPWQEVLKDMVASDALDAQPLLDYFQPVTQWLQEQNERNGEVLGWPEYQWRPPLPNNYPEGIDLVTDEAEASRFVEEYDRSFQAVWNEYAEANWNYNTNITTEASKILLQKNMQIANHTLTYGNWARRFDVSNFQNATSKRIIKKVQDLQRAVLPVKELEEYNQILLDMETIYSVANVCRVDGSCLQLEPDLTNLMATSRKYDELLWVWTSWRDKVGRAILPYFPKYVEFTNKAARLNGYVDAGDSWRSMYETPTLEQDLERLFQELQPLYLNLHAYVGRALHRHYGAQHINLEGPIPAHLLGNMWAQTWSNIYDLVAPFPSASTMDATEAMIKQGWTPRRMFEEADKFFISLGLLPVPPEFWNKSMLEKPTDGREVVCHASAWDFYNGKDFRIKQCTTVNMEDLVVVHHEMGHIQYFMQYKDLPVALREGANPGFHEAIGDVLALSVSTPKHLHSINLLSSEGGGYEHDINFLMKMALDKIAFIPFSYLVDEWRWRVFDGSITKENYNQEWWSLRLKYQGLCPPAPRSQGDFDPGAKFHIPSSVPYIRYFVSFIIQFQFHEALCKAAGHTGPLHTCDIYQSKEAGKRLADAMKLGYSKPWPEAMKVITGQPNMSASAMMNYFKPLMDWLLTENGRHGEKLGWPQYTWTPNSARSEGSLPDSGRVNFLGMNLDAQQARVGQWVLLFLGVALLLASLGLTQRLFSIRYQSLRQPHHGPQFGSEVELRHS
# Phosphodiesterase PDE3 = biological target: T3, Phosphodiesterase PDE3 (Homo sapiens, UniProt Q14432); experiment: Eurofins panel 152000; type: biochemical
# T3 construct: Eurofins 152000
# T3 sequence (Q14432 whole entry): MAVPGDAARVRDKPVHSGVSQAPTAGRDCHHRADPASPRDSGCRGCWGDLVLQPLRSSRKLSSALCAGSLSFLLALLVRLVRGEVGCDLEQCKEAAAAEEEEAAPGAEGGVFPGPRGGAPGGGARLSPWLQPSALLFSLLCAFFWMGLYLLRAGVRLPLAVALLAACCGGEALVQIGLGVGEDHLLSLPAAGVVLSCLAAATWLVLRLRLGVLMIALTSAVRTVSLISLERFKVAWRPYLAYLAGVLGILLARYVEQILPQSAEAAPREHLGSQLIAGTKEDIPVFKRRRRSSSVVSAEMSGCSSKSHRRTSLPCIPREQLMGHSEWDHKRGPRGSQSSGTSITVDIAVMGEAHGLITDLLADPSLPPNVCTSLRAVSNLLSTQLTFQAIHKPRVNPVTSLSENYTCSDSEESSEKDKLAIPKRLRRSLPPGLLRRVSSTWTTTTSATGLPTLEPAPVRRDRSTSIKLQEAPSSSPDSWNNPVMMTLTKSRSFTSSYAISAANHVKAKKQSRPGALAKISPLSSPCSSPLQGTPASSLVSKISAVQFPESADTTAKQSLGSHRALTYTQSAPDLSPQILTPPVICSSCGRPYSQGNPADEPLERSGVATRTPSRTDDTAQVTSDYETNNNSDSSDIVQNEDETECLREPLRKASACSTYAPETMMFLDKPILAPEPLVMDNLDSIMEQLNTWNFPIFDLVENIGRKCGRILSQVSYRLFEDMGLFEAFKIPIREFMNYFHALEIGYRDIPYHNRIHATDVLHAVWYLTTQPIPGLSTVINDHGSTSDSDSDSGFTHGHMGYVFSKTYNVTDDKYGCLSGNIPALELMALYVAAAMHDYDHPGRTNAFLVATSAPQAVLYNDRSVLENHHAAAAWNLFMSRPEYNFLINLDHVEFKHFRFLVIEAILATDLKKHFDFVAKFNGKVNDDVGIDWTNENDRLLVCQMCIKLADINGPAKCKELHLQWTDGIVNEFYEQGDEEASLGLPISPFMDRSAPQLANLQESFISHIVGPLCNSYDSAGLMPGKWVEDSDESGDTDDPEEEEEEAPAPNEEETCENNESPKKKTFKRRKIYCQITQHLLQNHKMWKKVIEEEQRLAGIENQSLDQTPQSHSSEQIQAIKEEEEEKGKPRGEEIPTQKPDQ
# Protocol: (§1) Radioligand binding to a panel of receptors was carried out by Eurofins on crude membrane preparations according to published procedures and by using appropriate reference standard (Eurofins, CVie 101 compound code PT #1207859, study #AB76416, quote #68407-1, for Cvie Therapeutics Limited, Taiwan (R.OC.) on Mar. 5, 2017). CVie 101 was tested at the concentration of 10 μM. No significant interaction was documented, except for Sodium Channel, site 2 from rat (cat #279510), where a significant response (≥50%) was noted (Table 7).
# Adenosine A1 = biological target: T4, Adenosine A1 (Homo sapiens, UniProt P30542); experiment: Receptor binding 200510
# T4 construct: Eurofins 200510; host or cells: crude membrane preparation
# T4 sequence (P30542 whole entry): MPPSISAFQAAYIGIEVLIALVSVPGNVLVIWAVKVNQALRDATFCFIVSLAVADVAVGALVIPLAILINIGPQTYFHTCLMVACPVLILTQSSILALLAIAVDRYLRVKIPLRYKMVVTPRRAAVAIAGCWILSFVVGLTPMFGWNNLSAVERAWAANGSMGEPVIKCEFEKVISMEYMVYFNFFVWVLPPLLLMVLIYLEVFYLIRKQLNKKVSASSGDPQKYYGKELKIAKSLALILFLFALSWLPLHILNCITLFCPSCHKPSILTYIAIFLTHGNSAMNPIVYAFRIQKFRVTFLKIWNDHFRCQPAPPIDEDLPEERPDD
# Protocol: as §1
# Aldosterone = biological target: T5, Aldosterone (Rattus norvegicus, UniProt P22199); experiment: Receptor binding 204600
# T5 construct: Eurofins 204600
# T5 sequence (P22199 whole entry): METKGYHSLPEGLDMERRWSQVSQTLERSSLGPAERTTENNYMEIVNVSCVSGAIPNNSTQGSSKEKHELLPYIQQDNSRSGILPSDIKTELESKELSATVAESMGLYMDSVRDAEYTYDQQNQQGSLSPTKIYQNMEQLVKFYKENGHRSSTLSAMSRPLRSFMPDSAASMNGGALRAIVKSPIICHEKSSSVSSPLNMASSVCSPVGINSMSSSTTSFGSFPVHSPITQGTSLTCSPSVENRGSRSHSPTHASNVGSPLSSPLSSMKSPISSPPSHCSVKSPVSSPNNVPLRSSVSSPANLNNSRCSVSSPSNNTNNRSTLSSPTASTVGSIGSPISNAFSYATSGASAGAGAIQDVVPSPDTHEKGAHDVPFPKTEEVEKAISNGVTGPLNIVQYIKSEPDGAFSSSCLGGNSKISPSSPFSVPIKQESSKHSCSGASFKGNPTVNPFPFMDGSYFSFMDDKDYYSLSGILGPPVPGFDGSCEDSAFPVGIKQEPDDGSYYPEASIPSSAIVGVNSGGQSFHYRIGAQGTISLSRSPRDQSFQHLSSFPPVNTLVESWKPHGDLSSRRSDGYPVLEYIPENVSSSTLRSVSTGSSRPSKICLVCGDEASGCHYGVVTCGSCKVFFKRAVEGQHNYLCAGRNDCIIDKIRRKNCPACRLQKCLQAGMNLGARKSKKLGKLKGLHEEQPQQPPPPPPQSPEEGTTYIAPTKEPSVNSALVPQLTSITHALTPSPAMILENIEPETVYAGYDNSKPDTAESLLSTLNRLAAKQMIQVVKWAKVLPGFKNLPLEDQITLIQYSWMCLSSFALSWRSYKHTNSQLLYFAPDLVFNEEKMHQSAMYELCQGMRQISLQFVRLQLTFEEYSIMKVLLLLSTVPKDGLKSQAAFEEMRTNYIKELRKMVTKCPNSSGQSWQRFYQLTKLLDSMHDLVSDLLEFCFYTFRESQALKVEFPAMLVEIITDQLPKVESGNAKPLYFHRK
# Protocol: as §1
# Dopamine D2s = biological target: T6, Dopamine D2s (Homo sapiens, UniProt P14416); experiment: Receptor binding 219700
# T6 construct: Eurofins 219700; host or cells: crude membrane preparation
# Protocol: as §1
# [2] = system: GABAA, Flunitrazepam, Central; experiment: Receptor binding 226600; parameters: species or system rat; conditions: 10 μM
# Protocol: as §1
# Imidazoline I2, Central = experiment: Receptor binding 241000; parameters: species or system rat; conditions: 10 μM
# Protocol: as §1
# Muscarinic M2 = biological target: T7, Muscarinic M2 (Homo sapiens, UniProt P08172); experiment: Receptor binding 252710
# T7 construct: Eurofins (contract assay) 252710
# Protocol: as §1
# Muscarinic M3 = biological target: T8, Muscarinic M3 (Homo sapiens, UniProt P20309); experiment: Receptor binding 252810
# T8 construct: Eurofins (contract assay) 252810
# Protocol: as §1
# Ryanodine RyR3 = biological target: T9, Ryanodine RyR3 (Rattus norvegicus, UniProt A0ABK0LPH6); experiment: Receptor binding 270300
# T9 construct: Eurofins (contract assay) 270300
# Protocol: as §1
# [3] = system: Serotonin (5-Hydroxytryptamine) 5-HT1, non selective; experiment: Receptor binding 271010; parameters: species or system rat; conditions: 10 μM
# Protocol: as §1
smiles,measurement,setting,value
"C[C@]12CC[C@H](O)C[C@H]1CCC1C2CC[C@]2(C)[C@@H](c3c[nH]cn3)CC[C@]12O (stereo partly drawn) [CVie 101, 3β-hydroxy-5β-10β-methyl-13β-methyl-14β-hydroxy-17β-(imidazol-4-yl)androstane]",% increase vs Control (SERCA2a Vmax),SERCA2a; compound 10 nM,15%*
same,Vmax (SERCA2a ATPase activity),SERCA2a; compound 10 nM,2.737 ± 0.336 (n = 7) μmol/min/mg prot
same,% increase vs Control (SERCA2a Vmax),SERCA2a; compound 100 nM,19%*
same,Vmax (SERCA2a ATPase activity),SERCA2a; compound 100 nM,2.832 ± 0.198 (n = 7) μmol/min/mg prot
same,A (late filling velocity of mitral inflow),STZ diabetic rats,0.76 ± 0.17 m/s
same,A′ (TDI late relaxation velocity),STZ diabetic rats,28.7 ± 6.6 cm/s
same,CO (cardiac output),STZ diabetic rats,219.0 ± 76.7 mL/min
same,DT (deceleration time of E wave),STZ diabetic rats,47.7 ± 4.8 ms
same,DT/E (mitral deceleration index),STZ diabetic rats,51.0 ± 10.2 ms·s/m
same,E (early filling velocity of mitral inflow),STZ diabetic rats,0.96 ± 0.14 m/s
same,E/A (index of LV function),STZ diabetic rats,1.29 ± 0.22
same,E/DT (deceleration slope),STZ diabetic rats,20.3 ± 4.1 m/s2
same,E/e′ (index of LV filling pressure),STZ diabetic rats,38.0 ± 4.9
same,E′ (TDI early relaxation velocity),STZ diabetic rats,25.2 ± 1.9 cm/s
same,FS (fractional shortening),STZ diabetic rats,45.1 ± 3.4 %
same,HR (heart rate),STZ diabetic rats,262 ± 48.1 beat/min
same,SV (stroke volume),STZ diabetic rats,0.82 ± 0.21 ml/beat
same,S′ (TDI contraction velocity),STZ diabetic rats,23.8 ± 3.6 cm/s
same,inhibition at 10 µM,[1],5%
same,inhibition at 10 µM,Phosphodiesterase PDE3,-16%
same,inhibition at 10 µM,Adenosine A1,-4%
same,inhibition at 10 µM,Aldosterone,6%
same,inhibition at 10 µM,Dopamine D2s,4%
same,% inhib,[2],6%
same,% inhib,"Imidazoline I2, Central",25%
same,inhibition at 10 µM,Muscarinic M2,7%
same,inhibition at 10 µM,Muscarinic M3,15%
same,inhibition at 10 µM,Ryanodine RyR3,8%
same,% inhib,[3],7%
